Series [1] in a line: Solubility and stability observations. It is filed as physicochemical. The text has this: Scheme 1 depicts the general route for the preparation of HBMF. Neutralization of the aqueous solution of 2-(aminomethyl) benzimidazole hydrochloride (0.100 g, 0.4543 mmol) was done in the first step of synthesis using an aqueous solution of potassium carbonate (0.0753 g, 0.5451 mmol) and then mixed with a methanolic solution of 5-fluorosalicyladihyde (0.0630 g, 0.4543 mmol). The resulting mixture was stirred at room temperature using a magnetic stirrer. The yellow precipitate obtained was filtered off and washed with water followed by petroleum ether and dried under vacuum. The completion of the reaction was monitored on pre-coated silica gel plates by the thin layer chromatography (TLC) method using chloroform and methanol as the solvent system in the ratio (9:1). The Schiff base thus obtained was insoluble in water but soluble in methanol, DMSO, etc. Elemental analysis for HBMF (C15H11FN3O): Calculated (%): C, 62.91; H, 4.33; F, 7.05; N, 14.59; O, 5.90. Found (%): C, 62.95; H, 4.36; F, 7.09; N, 14.65; O, 5.94. ^1H NMR (CDCl3, 400 MHz) ð: 5.09 [C1] (s, 2H, CH2); 6.86 [C7 and C6] (dd, 2H, Ar-H); 7.04–7.06 [C12 and C13] (t, 1H, Ar-H); 7.25 [C4] (d, 2H, Ar-H); 7.57 [C11] (d, 1H, Ar-H); 7.58 [C14] […]
Millimolar solutions of all the prepared metal complexes (C1-0.599, C2-0.615, C3-0.595, and C4-0.629 […]) were prepared using DMSO solvent and the conductance was measured (Table S1). […]

Series [2] deals with Ehrlich–Lettre ascites carcinoma (EAC) cell line. In words: MTT anti-proliferative assay, EAC. Type of series: cell-based. The settings on record: 48 h, incubated for 2 days, read-out: IC50 against EAC. As for the experimental part:
(§1) In vitro anti-proliferative assays of the cultured cell lines A549, EAC, SIHA and NIH3T3, under laboratory conditions, were performed. The cells were developed in Dulbecco’s Modified Eagle Medium (DMEM) (Gibco-Invitrogen, Austin, TX, USA), in addition with heat-inactivated Foetel Bovine Serum (Invitrogen, Waltham, MA, USA), Pen Strep and followed by the addition of NaHCO3 (0.40%). The resulting component was incubated at 37 °C and maintained at 97% humidity and 90% air atmosphere. Exactly 10 µM of the synthesized ligand HBMF and its complexes (C1–C4), prepared using DMSO as a solvent, was used initially to assess their cytotoxicity and anti-proliferative activity in vitro using the MTT assay as described previously. 5-fluorouracil was used as a positive control and an appropriate vehicle control.
(§2) The various cell lines, such as A549, EAC, SIHA and NI3T3, were used initially to investigate the extent of preliminary proliferation against the MTT assay. The synthesized ligand, the complexes, and 5-fluorouracil were treated with all four cell lines as mentioned above. The cells were treated in the absence and presence of the ligand and its complexes and were incubated for 2 days. The effect of the proliferating cells and the color change was investigated by adding 5 mg/mL of 3-(4,5-Dimethylthiazol-2-yl)-2,5-Diphenyltetrazolium Bromide (MTT) reagent.
Background: Tetrazolium dyes change colour on reduction, which living cells bring about.

Another series has as its system NIH3T3 cell line. In words: MTT anti-proliferative assay, NIH3T3. Type of series: cell-based. The settings on record: Mus musculus, NIH3T3, 48 h, incubated for 2 days, read-out: IC50 against NIH3T3. On the procedure: as §1, §2
In a further series the test system is A549 cell line. In words: MTT anti-proliferative assay, A549. Type of series: cell-based. The settings on record: Homo sapiens, A549, 48 h, incubated for 2 days, read-out: IC50 against A549. As for the experimental part:
as §1, §2

The subject of another series is SIHA cell line. In words: MTT anti-proliferative assay, SIHA. It is filed as cell-based. The settings on record: Homo sapiens, 48 h, incubated for 2 days, read-out: IC50 against SIHA. As for the experimental part: as §1, §2

In general, IC50 refers to the point on the concentration scale where inhibition reaches its midpoint. For `Oc1ccc(F)cc1/C=N/Cc1nc2ccccc2[nH]1` [HBMF, 2-((E)-((1H-benzo[d]-2-yl)methylimino)methyl)-4-fluorophenol], the “Solubility in methanol, DMSO” value in series [1] (methanol, DMSO, etc.) was “soluble”. Also, in series [1] (water), the Solubility in water result is reported as “insoluble”. Besides, the IC50 in series [2] was 48 ± 0.3 µM; in the series on NIH3T3 cell line, 52.6 ± 0.4 µM; with A549 cell line it was 54.21 ± 0.4 µM; in the series with SIHA cell line it was 53.4 ± 0.7 µM.
On to `O=c1[nH]cc(F)c(=O)[nH]1` [5‐FU, 5-fluorouracil, reference compound], for which the IC50 amounted to 6.1 ± 1.8 µM in series [2], 7.8 µM in the series with NIH3T3 cell line, 7.2 ± 0.5 µM with A549 cell line and 6.2 ± 0.7 µM in the series with SIHA cell line.
